Measured values taken from ChEMBL document CHEMBL5375947, “Discovery of Efficient Hypoxia-Targeted NO Donor Compounds to Alleviate Hypoxia Cardiac Disease” (J Med Chem, 2023).
Calls of active or inactive are those of the source. No cut-off for these calls is given here.

Columns and labels:
[1] = system: H9c2; assay: Induction of NO release in rat H9c2 cells at 10 uM under normoxia condition by griess reagent based assay; format: functional
[2] = system: H9c2; assay: Induction of NO release in rat H9c2 cells at 10 uM under hypoxia condition by griess reagent based assay; format: functional
[3] = Stability of compound in PBS at pH 7.4 by HPLC analysis; format: physicochemical; settings: buffer
[4] = system: H9c2; assay: Induction of NO release in rat H9c2 cells at 5 to 10 uM under hypoxia condition by griess reagent based assay; format: functional, cell-based; settings: dose 5-10 µM
[5] = system: H9c2; assay: Induction of NO release in rat H9c2 cells at 10 uM under hypoxia condition by DAF-FM fluorescence probe based spectroscopic assay; format: functional, cell-based
[6] = system: H9c2; assay: Cytotoxicity against rat H9c2 cells assessed as reduction in cell viability at 0.01 to 10 uM under normoxia condition by CCK-8 assay; format: toxicity, cell-based; settings: h9c2, 10 µM, dose 0.01-10 µM
[7] = system: H9c2; assay: Recovery of myocardial cell viability in rat H9c2 cells at 0.01 to 10 uM under hypoxia condition by CCK-8 assay; format: functional, cell-based; settings: dose 0.01-10 µM
[8] = system: H9c2; assay: Recovery of myocardial cell viability in rat H9c2 cells under hypoxia condition by CCK-8 assay; format: functional, cell-based; settings: dose 10.0 µM
[9] = system: H9c2; assay: Recovery of myocardial cell viability in rat H9c2 cells at 0.01 to 1 uM under hypoxia condition by CCK-8 assay; format: functional, cell-based; settings: dose 0.01-1 µM
[10] = system: H9c2; assay: Recovery of myocardial cell viability in rat H9c2 cells assessed as increase in ATP level at 10 micromol/L measured per mg of protein under hypoxia condition by fluorescence based assay; format: functional; settings: dose 10 µmol/L
[11] = Toxicity in C57 mouse assessed as increase in body weight at 4 mg/kg, ip administered twice a day for 3 days; format: organism-based; settings: in vivo, 72 h, time 3 day
[12] = system: H9c2; assay: Anti-apoptotic activity in rat H9c2 cells assessed as late apoptotic cells by measuring red fluorescence intensity by annexin V-FITC/PI staining based confocal microscopic analysis; format: functional, cell-based
[13] = system: H9c2; assay: Downregulation of ACE expression in rat H9c2 cells at 5 to 10 uM by Western blot analysis; format: functional, cell-based; settings: dose 5-10 µM
[14] = system: H9c2; assay: Downregulation of ACE expression in rat H9c2 cells at 5 uM by Western blot analysis; format: functional, cell-based
[15] = system: H9c2; assay: Upregulation of TSC2-p expression in rat H9c2 cells at 5 to 10 uM by Western blot analysis; format: functional, cell-based; settings: dose 5-10 µM
[16] = system: H9c2; assay: Downregulation of mTORC1 expression in rat H9c2 cells at 5 to 10 uM by Western blot analysis; format: functional, cell-based; settings: dose 5-10 µM
[17] = system: H9c2; assay: Downregulation of mTORC1 expression in rat H9c2 cells at 5 uM by Western blot analysis; format: functional, cell-based
[18] = Toxicity in C57 mouse assessed as increase in cardiac swelling at 4 mg/kg, ip administered twice a day for 3 days; format: organism-based; settings: in vivo, 72 h, time 3 day
[19] = Toxicity in C57 mouse assessed as increase in cardiac swelling at 12 mg/kg, ip administered twice a day for 3 days; format: organism-based; settings: in vivo, 72 h, time 3 day
[20] = Toxicity in C57 mouse assessed as reduction in heart weight at low dose administered twice a day for 3 days (reference value: 0.56g); settings: in vivo, 72 h, time 3 day
[21] = Toxicity in C57 mouse assessed as reduction in heart weight at high dose administered twice a day for 3 days (reference value: 0.56g); settings: in vivo, 72 h, time 3 day
[22] = system: Mus musculus; assay: Induction of NO release in C57 mouse at 4 to 12 mg/kg, ip administered twice a day for 3 days; format: functional, organism-based; settings: dose 4-12 mg/kg, time 3.0 day
[23] = system: Mus musculus; assay: Protection against hypoxia-induced myocardial injury ip dosed C57 mouse model assessed as cellular arrangement disorder at low dose administered twice a day for 2 days by H and E staining based analysis; format: functional, organism-based; settings: time 2.0 day
[24] = system: Mus musculus; assay: Vasodilation activity against hypoxia-induced myocardial injury ip dosed C57 mouse model assessed as vascular obstruction areas low dose administered twice a day for 3 days; format: functional, organism-based; settings: time 3.0 day
[25] = system: Mus musculus; assay: Vasodilation activity against hypoxia-induced myocardial injury ip dosed C57 mouse model assessed as vascular obstruction areas high dose administered twice a day for 3 days; format: functional, organism-based; settings: time 3.0 day
[26] = system: Mus musculus; assay: Protection against hypoxia-induced myocardial injury ip dosed C57 mouse model assessed as collagen fiber proliferation at low dose administered twice a day for 3 days by masson staining based analysis; format: functional, organism-based; settings: time 3.0 day
[27] = system: H9c2; assay: Induction of NO release in rat H9c2 cells under hypoxia condition by griess reagent based assay; format: functional, cell-based; settings: dose <= 15.0 µM
[28] = system: H9c2; assay: Induction of NO release in rat H9c2 cells at 10 uM measured upto 12 hrs under hypoxia condition by griess reagent based assay; format: functional, cell-based
[29] = system: H9c2; assay: Induction of NO release in rat H9c2 cells at 10 uM measured at 30 mins under hypoxia condition by griess reagent based assay; format: functional; settings: 0.5 h
[30] = Toxicity in C57 mouse assessed as reduction in heart weight at 12 mg/kg, ip administered twice a day for 3 days (reference value: 0.56g); format: organism-based; settings: in vivo, 72 h, time 3 day
[31] = system: Mus musculus; assay: Induction of NO release in C57 mouse at 4 mg/kg, ip administered twice a day for 3 days; format: functional; settings: time 3 day
[32] = system: Mus musculus; assay: Protection against hypoxia-induced myocardial injury C57 mouse model assessed as cellular arrangement disorder at 12 mg/kg, ip administered twice a day for 2 days by H and E staining based analysis; format: functional, organism-based; settings: time 2.0 day
[33] = system: Mus musculus; assay: Vasodilation activity against hypoxia-induced myocardial injury C57 mouse model assessed as vascular obstruction areas at 12 mg/kg, ip administered twice a day for 3 days; format: functional, organism-based; settings: time 3.0 day
[34] = Toxicity in C57 mouse assessed as ratio of heart weight to body weight at 4 mg/kg IG administered twice a day for 3 days; format: organism-based; settings: in vivo, po, 72 h, time 3 day
[35] = system: H9c2; assay: Induction of NO release in rat H9c2 cells at 5 to 15 uM under hypoxia condition by griess reagent based assay; format: functional, cell-based; settings: dose 5-15 µM
[36] = system: H9c2; assay: Induction of NO release in rat H9c2 cells at 10 uM measured at 4 hrs under normoxia condition by griess reagent based assay; format: functional
[37] = system: H9c2; assay: Induction of NO release in rat H9c2 cells at 10 uM measured at 4 hrs under hypoxia condition by griess reagent based assay; format: functional, cell-based
[38] = system: H9c2; assay: Effect on ACE expression in rat H9c2 cells at 1 uM by Western blot analysis; format: functional, cell-based
[39] = system: H9c2; assay: Effect on TSP1 expression in rat H9c2 cells at 10 uM by Western blot analysis; format: functional, cell-based
[40] = system: H9c2; assay: Effect on TSC2-p expression in rat H9c2 cells by Western blot analysis; format: functional, cell-based; settings: dose 0.01-1 µM
[41] = system: Mus musculus; assay: Protection against hypoxia-induced myocardial injury ip dosed C57 mouse model assessed as cellular arrangement disorder at high dose administered twice a day for 2 days by H and E staining based analysis; format: functional, organism-based; settings: time 2.0 day
[42] = system: Mus musculus; assay: Protection against hypoxia-induced myocardial injury ip dosed C57 mouse model assessed as downregulation of ACE expression in heart at low dose administered twice a day for 3 days by immunohistochemistry analysis; format: functional, organism-based; settings: time 3.0 day
[43] = system: Mus musculus; assay: Protection against hypoxia-induced myocardial injury ip dosed C57 mouse model assessed as downregulation of ACE expression in heart at high dose administered twice a day for 3 days by immunohistochemistry analysis; format: functional, organism-based; settings: time 3.0 day
[44] = system: Mus musculus; assay: Protection against hypoxia-induced myocardial injury ip dosed C57 mouse model assessed as downregulation of mTORC1 expression in heart at low dose administered twice a day for 3 days by immunohistochemistry analysis; format: functional, organism-based; settings: time 3.0 day
[45] = system: Mus musculus; assay: Protection against hypoxia-induced myocardial injury ip dosed C57 mouse model assessed as downregulation of mTORC1 expression in heart at high dose administered twice a day for 3 days by immunohistochemistry analysis; format: functional, organism-based; settings: time 3.0 day
[46] = Toxicity in C57 mouse assessed as increase in body weight at 4 to 12 mg/kg IG administered twice a day for 3 days; format: organism-based; settings: in vivo, po, 72 h, dose 4-12 mg/kg, time 3 day
[47] = Toxicity in C57 mouse assessed as ratio of heart weight to body weight at 4 to 12 mg/kg IG administered twice a day for 3 days; format: organism-based; settings: in vivo, po, 72 h, dose 4-12 mg/kg, time 3 day
[48] = system: Mus musculus; assay: Protection against hypoxia-induced myocardial injury IG dosed C57 mouse model assessed as collagen fiber proliferation at low dose administered twice a day for 3 days by masson staining based analysis; format: functional, organism-based; settings: time 3.0 day
[49] = system: Mus musculus; assay: Protection against hypoxia-induced myocardial injury C57 mouse model assessed as reduction in collagen fiber proliferation at 12 mg/kg, IG administered twice a day for 3 days by masson staining based analysis; format: functional, organism-based; settings: time 3.0 day
[50] = system: Mus musculus; assay: Protection against hypoxia-induced myocardial injury C57 mouse model assessed as downregulation of ACE expression in heart at 12 mg/kg, IG administered twice a day for 3 days by immunohistochemistry analysis; format: functional, organism-based; settings: time 3.0 day

In the case of `CN(N=O)c1ccc(OC(=O)OCc2ccccc2[N+](=O)[O-])cc1`, the Activity [1] is reported as under 2% and the Activity [2] is reported as over 20%.
`CN(N=O)c1ccc(OC(=O)OCc2cc(Cl)ccc2[N+](=O)[O-])cc1` showed an Activity [1] of under 2%.
For `CN(N=O)c1ccc(OC(=O)OCc2ccc([N+](=O)[O-])cc2)cc1`, the Stability [3] was 0.41%, the Activity [1] was under 2% and the Activity [2] was 24.38%. For the same molecule, the Activity [4] was “Active”, the Activity [5] was “Active” and the Activity [6] was “Non-Toxic”. The Activity [7] was “Active”, the Activity [8] was “Dose-Dependent Effect” and the Activity [9] was “Active”. The Activity [10] was 37.5 nmol, the Activity [11] was “Non-Toxic” and the Activity [12] was “Active”. The Activity [13] was “Active”, the Activity [14] was “inactive” and the Activity [15] was “Active”. The Activity [16] was “Active”, the Activity [17] was “inactive” and the Activity [18] was “Non-Toxic”. The Activity [19] was “Toxic”, the Activity [20] was 0.57 g and the Activity [21] was 0.48 g. The Activity [22] was “Active”, the Activity [23] was “Active” and the Activity [24] was “Active”. For the same molecule, the Activity [25] was “Active” and the Activity [26] was “inactive”.
For `Cc1ccc(COC(=O)Oc2ccc(N(C)N=O)cc2)c([N+](=O)[O-])c1`, the Activity [1] was under 2%.
With `CN(N=O)c1ccc(OC(=O)OCc2ccc(Cl)cc2[N+](=O)[O-])cc1` the Activity [1] was under 2%.
`CN(N=O)c1ccc(OC(=O)OCc2ccc([N+](=O)[O-])cc2Cl)cc1` gave an Activity [1] of under 2% and an Activity [2] of over 20%.
`Cc1ccc([N+](=O)[O-])c(COC(=O)Oc2ccc(N(C)N=O)cc2)c1` showed an Activity [1] of under 2%.
In the case of `CN(N=O)c1ccc(OC(=O)OCc2ccc(Br)cc2[N+](=O)[O-])cc1`, the Activity [1] is reported as under 2%.
In the case of `O=[N+]([O-])O[C@H]1CO[C@H]2[C@@H]1OC[C@H]2O[N+](=O)[O-]` [ISOSORBIDE DINITRATE], the Activity [1] is reported as 36.89%, the Activity [2] is reported as 27.41% and the Activity [27] is reported as “Dose-Dependent Effect”. The Activity [28] was “Active”, the Activity [29] was about 30% and the Activity [6] was “Non-Toxic”. The Activity [7] was “Active”, the Activity [10] was 28.7 nmol and the Activity [11] was “Non-Toxic”. For the same molecule, the Activity [12] was “Active”, the Activity [30] was 0.51 g and the Activity [31] was 54%. For the same molecule, the Activity [32] was “Active”, the Activity [33] was “inactive” and the Ratio [34] was 0.59.
In the case of `Cc1cc([N+](=O)[O-])ccc1COC(=O)Oc1ccc(N(C)N=O)cc1`, the Activity [1] is reported as under 2%, the Activity [2] is reported as 43.21% and the Activity [4] is reported as “Active”. The Activity [35] was “Active”, the Activity [5] was “Active” and the Activity [28] was “Active”. For the same molecule, the Activity [36] was 0%, the Activity [37] was “Active” and the Activity [29] was 28%. For the same molecule, the Activity [6] was “Non-Toxic”, the Activity [7] was “Active” and the Activity [10] was 44 nmol. The Activity [11] was “Non-Toxic”, the Activity [12] was “Active” and the Activity [13] was “Active”. For the same molecule, the Activity [15] was “Active”, the Activity [38] was “Active” and the Activity [39] was “Active”. The Activity [40] was “Dose-Dependent Effect”, the Activity [19] was “Toxic” and the Activity [20] was 0.52 g. For the same molecule, the Activity [21] was 0.48 g, the Activity [22] was “Active” and the Activity [23] was “Active”. The Activity [41] was “Active”, the Activity [24] was “Active” and the Activity [25] was “Active”. For the same molecule, the Activity [26] was “Active”, the Activity [42] was “Active” and the Activity [43] was “Active”. For the same molecule, the Activity [44] was “Active”, the Activity [45] was “Active” and the Activity [46] was “Non-Toxic”. For the same molecule, the Ratio [47] was 0.56, the Activity [48] was “Active” and the Activity [49] was “Active”. For the same molecule, the Activity [50] was “Active”.
